Data reported in ChEMBL document CHEMBL3507680, “University of Dundee, Gates Library screen for HepG2 cell viability”.

test: Human HepG2 cell viability assay in 384 well format; format: toxicity, cell-based; parameters: dose 125 nL, time 70.5 hour; cytotoxicity at 70.5 h: concentration not given beside the values; conditions: HepG2 cells, read-out: Inhibition

Row | Compound | cytotoxicity at 70.5 h [%]
1 | CN(C)CCN1CCCC12CCCN(Cc1ccoc1)C2 (centres undefined) | 13.7
2 | O=C(c1ccc2sccc2c1)N1CCC(C(=O)O)(n2ccnc2)CC1 | 3.47
3 | CC(C)c1noc(CN(Cc2cccnc2)C2CN3CCC2CC3)n1 (centres undefined) | 52.5
4 | Cc1cnn(C2CCCN(C(=O)c3ccc(NC4CC4)nc3)C2)c1 (centres undefined) | -13.3
5 | O=C(NCCN1CCCC1)c1cc2c(s1)CCN2C(=O)c1ccccc1 | -8.31
6 | O=C(NCCn1ccnc1)N1CCN(Cc2cccs2)CC1 | -17.2
7 | CCN(Cc1ccc(O)c(C(=O)O)c1)CC1CCCO1 (centres undefined) | 24.1
8 | O=C(Cc1ccsc1)N1CCC(c2noc(-c3ccncc3)n2)CC1 | -0.304
9 | Fc1cccc(N2CCOC3(CCCN(c4cnccn4)C3)C2)c1 (centres undefined) | -7.3
10 | CC(C)c1cc(NC(=O)c2cccnc2)[nH]n1 | -10.3
11 | Cc1ccc(F)c(S(=O)(=O)NCc2cccc(CS(C)(=O)=O)c2)c1 | -18
12 | CC1(NC(=O)Cc2csc(C(C)(C)C)n2)CCS(=O)(=O)C1 (centres undefined) | 18.9
13 | Cc1nc(Nc2nnc(C)s2)cc(C2CCCN2C(C)C)n1 (centres undefined) | 5.99
14 | Cc1ccc2c(c1)[C@@H](CC(=O)N1CCN(C)CC1)CCO2 | 3.15
15 | Cc1ccc(CN2CCOC3(CCN(C(=O)C4CCOC4)CC3)C2)cc1 (centres undefined) | -1.7
16 | Cc1nn(-c2ccccc2)cc1C(=O)N1CCCC1c1cnn(C)c1 (centres undefined) | -6.59
17 | COc1c(C2CCCN2C(=O)c2cnc(C)cn2)c(C)nn1C (centres undefined) | 10.6
18 | CCSc1nc2ccccc2c(=O)n1OCC(=O)OC | -8.5
19 | Cc1ncncc1C(=O)N1CCCC(c2[nH]ncc2S(C)(=O)=O)C1 (centres undefined) | -6.13
20 | CSCCNC(=O)c1coc(COc2ccc(F)cc2)n1 | 7.74
21 | CCNC(=O)[C@@H]1C[C@H](N)CN1Cc1ccc(-c2cc[nH]n2)o1 | 9.98
22 | CSc1ccccc1C(=O)NCCC(O)c1ccco1 (centres undefined) | 16.9
23 | CCCC(=O)N1CCCC(C(=O)c2cnn(-c3ccc(F)cc3)c2N)C1 (centres undefined) | -4.03

Row | Compound | cytotoxicity at 70.5 h [%]
24 | N[C@H]1CN(C(=O)c2ccc(Cl)cc2F)C[C@@H]1C1CC1 | -4.7
25 | COCC1CCCN(C(=O)c2ccc(NC(=O)CC(C)C)c(C)c2)C1 (centres undefined) | -17.4
26 | O=C(NCc1ccncc1)C1=NOC2(CCCNC2)C1 (centres undefined) | 14.2
27 | Cc1cccc(CNC2CC3(CCN(CCO)CC3)c3ccccc32)n1 (centres undefined) | 2.24
28 | CSCCC(=O)N1CCCN(c2ccccc2C)CC1 | 13.3
29 | O=C(O)CNC(=O)Cc1csc(-c2ccccc2F)n1 | 18.6
30 | CCN(C1CCS(=O)(=O)C1)S(=O)(=O)c1cccc2cc(C)cnc12 (centres undefined) | 2.06
31 | Cc1cccc(Sc2nccn(C)c2=O)c1 | -13.8
32 | O=C(N1CCCCC1)N1CCCC1c1nnc2n1CCNC2 (centres undefined) | 17.6
33 | CCS(=O)(=O)N1CCOC2(CCCN(Cc3ccccn3)C2)C1 (centres undefined) | -1.63
34 | Cc1nc(-c2ccc(F)c(F)c2)cc(C2CCNCC2)n1 | -2.44
35 | COC(=O)CCNC(=O)c1ccc(NC(=O)N(C)CC(C)C)cc1 | 12.2
36 | c1ccc2c(N3CCCCC3Cn3cncn3)ncnc2c1 (centres undefined) | -9.62
37 | Cc1ccc(N2CC[C@H]3C[C@@H](C(=O)N4CCOCC4)O[C@H]3C2)nn1 | -0.412
38 | Cc1ccccc1OCC(=O)N1CC[C@]2(C[C@@H](OCC3CC3)CO2)C1 | -1.4
39 | C=C(C)CSc1nnc(CCNC(=O)OC(C)(C)C)o1 | -12.3
40 | CCC(=O)N1CCCC1c1nc(N(C)C)ncc1-c1ccc(Cl)cc1 (centres undefined) | 2.05
41 | COCCNC(=O)[C@]12COC[C@H]1CN(c1cc(OC)ncn1)C2 | -1.98
42 | O=C1NCCN1C1CCCN(Cc2nnc(-c3ccc(F)cc3)o2)C1 (centres undefined) | -21.9
43 | Cc1ccc(C(=O)N2Cc3ccccc3C2)cc1N1CCNC1=O | -6.89
44 | CCn1cnnc1C1CCN(C(=O)COCCc2ccccc2)CC1 | -3.71
45 | COCC(=O)N1CCC(C(=O)N(C)CCCc2nccn2C)CC1 | 1.13
46 | CSc1ccc(OCCN2CCNC(=O)CC2)cc1 | -7.88

Row | Compound | cytotoxicity at 70.5 h [%]
47 | CCOc1ccnc(N[C@@H](Cc2ccccc2)C(N)=O)n1 | -6.36
48 | COc1ccc(Cl)cc1CC(=O)N1CCN(CC(C)(C)O)CC1 | -3.48
49 | COc1cccc(OC)c1C(=O)N1CCN(c2ccccc2F)CC1 | 39
50 | COc1cc(C(=O)Nc2nc(C)no2)cc(OC)c1Br | 27.4
51 | O=C(NCC[S+]([O-])c1ccccc1)NCC(F)(F)F (centres undefined) | -7.27
52 | c1cncc(COCC2CN(Cc3ccco3)Cc3nccn3C2)c1 (centres undefined) | -9.74
53 | CN(C)C(=O)CN1C(=O)CO[C@@H]2CN(c3ccccn3)C[C@H]21 | -7.96
54 | CO[C@H]1CN(Cc2ccccc2F)[C@@H]2CCCO[C@H]12 | -1.13
55 | CC(=O)N1CCc2[nH]nc(C(=O)N3CC=CC3)c2C1 | 34.9
56 | CC(C)(C)c1cnc(CNCC2CCCN2c2cccnn2)o1 (centres undefined) | 18.8
57 | CC1(C)CN(S(=O)(=O)N2CCOCC2)CC1c1ccccc1 (centres undefined) | 1.45
58 | CC(c1ccccc1)N(C)C(=O)CNCCn1cccn1 (centres undefined) | -10.3
59 | Cc1nc(C(=O)N2CCN(S(=O)(=O)N(C)C)CC2)c(-c2ccccc2)s1 | 13.5
60 | O=C(CN1C(=O)CCC1=O)NCc1cc(C2CC2)n(C2CCCC2)n1 | -2.61
61 | Cc1nn(C(C)C)c(C)c1CN1CCC(c2cc(C(C)C)n[nH]2)CC1 | -0.772
62 | CC(C)Oc1ccc(CC2=N[C@](C)(CO)CO2)cc1 | 21.4
63 | CC(=O)N1CCc2c(nc(N(C)C)nc2N(C)CCO)C1 | -2.49
64 | Cc1cc(C(=O)NCC2COCc3c(C)nnn3C2)no1 (centres undefined) | -6.83
65 | CS(=O)(=O)N1CCc2[nH]cnc2C12CCN(C(=O)c1ccc[nH]1)CC2 | -3.3
66 | Cc1nnsc1C(=O)NCCn1ccc(-c2ccncc2)n1 | 18.8
67 | CC(=O)N(C)Cc1ccccc1NC(=O)N(C)CCc1cccs1 | -3.06
68 | c1ccn2c(C3CCCN(c4ncnc5c4CCNC5)C3)nnc2c1 (centres undefined) | 8.25
69 | Cn1cc(CN2CCCn3cnc(COCc4ccco4)c3C2)cn1 | 3.06

Row | Compound | cytotoxicity at 70.5 h [%]
70 | O=C(c1cc(C2CC2)on1)N1C[C@H]2CC[C@](O)(c3ccccc3F)[C@H]2C1 | -0.256
71 | OCC(CO)Nc1ccc2ccc(Cl)c(Cl)c2n1 | 19.4
72 | O=C(NCC(F)F)c1cc(-c2ccccc2)nc2ncnn12 | -1.07
73 | CC(c1ccco1)N(C(=O)c1cccc(C#N)c1)C1CC1 (centres undefined) | -5.03
74 | c1cnc2[nH]c(C3CCNCC3)c(CN3CCOCC3)c2c1 | -1.47
75 | CCOc1cccnc1C(=O)N1CCCN(c2nc(C)cs2)CC1 | -3.42
76 | CCC(C(=O)NCc1ccncc1)N(c1cccc(C)c1)S(C)(=O)=O (centres undefined) | -9.28
77 | O=C(NCC1CC1)c1cnc(-c2ccccc2)nc1 | -5.81
78 | CCn1c(C)cc(C(=O)N2C[C@@H](C(=O)O)[C@H](c3ccccc3C)C2)c1C | -8.47
79 | CN(Cc1ccccc1)C(=O)CS(=O)(=O)Cc1ccc(Cl)c(Cl)c1 | -4.65
80 | Cc1ccc(C(=O)N2CCC3(CCC(=O)N(CC(C)O)C3)CC2)c(O)c1 (centres undefined) | -7.72
81 | O=C(c1cc[nH]n1)N1CCC(F)(F)C2(CCN(c3ccccn3)C2)C1 (centres undefined) | 11
82 | Cc1occc1C(=O)N1CCn2c(COCC3CC3)cnc2C1C (centres undefined) | -9.85
83 | O=C(c1cnccn1)N1CCCC2(CCN(c3ncccn3)C2)C1 (centres undefined) | 4.46
84 | Cc1ccc(N2CCCC(N3CCN(CC(F)F)CC3)C2=O)cc1 (centres undefined) | -6.94
85 | CS(=O)(=O)NCCn1ccc(-c2cccs2)n1 | -6.85
86 | COc1ccc2cnn(CC(=O)NC3CCCCC3)c(=O)c2c1OC | 1.17
87 | Cc1ccc(CNC(c2ccccc2)c2nccn2C)cc1C (centres undefined) | -7.63
88 | CCS(=O)(=O)N1CCCC2(CCCN2Cc2cccc(F)c2)C1 (centres undefined) | -8.06
89 | CCc1nn(-c2cc(Oc3cc(C)ccc3C)ncn2)c(N)c1C#N | -1.76
90 | COCCc1noc(CN2CCCC(Cn3nc(C)nc3C)C2)n1 (centres undefined) | 2.6
91 | O=C(c1cccnc1)N1CCC(c2nc(O)cc(-c3ccncc3)n2)C1 (centres undefined) | -10.5
92 | CCCc1cc(NCc2ccc(CO)cc2)n2nccc2n1 | 1.98

Row | Compound | cytotoxicity at 70.5 h [%]
93 | CCc1c(C)nn2c(O)cc(C3CCN(C(=O)C4CC4)C3)nc12 (centres undefined) | -6
94 | O=C(O)C1(n2ccc(-c3ccco3)n2)CCN(Cc2ccsc2)CC1 | -1.95
95 | C1CC(CN2CCCCC2C2OCCO2)C1 (centres undefined) | 3.56
96 | CCCN(Cc1ccccc1O)S(=O)(=O)C(C)CC (centres undefined) | -5.52
97 | Cc1ccnc(C2CCN(C(=O)c3cnn(C)c3)CC2)n1 | 23.3
98 | CN(Cc1cc(Cl)c2c(c1)OCO2)Cc1cscn1 | 3.03
99 | CS(=O)(=O)CCOCCNc1ccc(C#N)cc1F | -7.64
100 | CC(=O)N1C[C@H]2CCCC(N3CCN(c4ncccn4)CC3)[C@H]2C1 (some centres undefined) | 11.4
101 | CSCC(=O)N1CCCC(n2ccnc2C(C)C)C1 (centres undefined) | -7.04
102 | CC(C)N(CCSc1ncnc2[nH]ncc12)C(C)C | -1.52
103 | O=C(CCCOc1ccc(F)cc1F)N1CCCC(n2cccn2)C1 (centres undefined) | -3.24
104 | Cc1cccc(NC(=O)NC2CCN(C3CCOC3)CC2)c1 (centres undefined) | 3.03
105 | Cn1ccnc1C1CCN(S(=O)(=O)c2ccc3[nH]c(=O)[nH]c3c2)CC1 | 15.5
106 | CN1CCC/C1=N\S(=O)(=O)c1ccc(NC(=O)CCc2cccs2)cc1 | -1.04
107 | O=C(c1ccc(S(=O)(=O)NCc2ccncc2)cc1)N1CCNCC1 | -6.98
108 | CCC(=O)N1CCC2(COCc3cnc(NCc4ccco4)nc32)C1 (centres undefined) | 0.523
109 | CN(Cc1ccccc1)C(=O)CSc1ccc2c(c1)OCCO2 | 2.14
110 | Cc1cnn(CCNCc2ccc(S(C)(=O)=O)cc2)c1 | -4.97
111 | Cc1noc(C)c1CCC(=O)NC(C)c1nnc2n1CCCCC2 (centres undefined) | -4.24
112 | CC(C)c1nc2c(n1C)CCN(CC(=O)Nc1ccncc1)C2 | -7.84
113 | Cc1nc(C(=O)N2CCCC2c2c(C)nn(C)c2C)ccc1C#N (centres undefined) | -7.57
114 | Cc1noc(C)c1C(=O)N1CCCC(c2cc(C(F)(F)F)[nH]n2)C1 (centres undefined) | 11
